# Assay results from ChEMBL document CHEMBL3046708, “The effect of pyridazine compounds on the cardiovascular system” (Med Chem Res, 2012).
# Tests used:
# Sus scrofa [1] = test: Cardiotoxicity in iv dosed Sus scrofa (pig) assessed as effect on maximum rate of rise of left ventricular pressure administered as infusion; type: toxicity, organism-based, Heart left ventricle; settings: in vivo
# Sus scrofa [2] = test: Cardiotoxicity in Sus scrofa (pig) assessed as increase in maximum rate of rise of left ventricular pressure at 2.5 to 25 ug/kg/min administered as 10 min infusion; type: toxicity, organism-based, Heart left ventricle; settings: in vivo, iv
# Sus scrofa [3] = test: Cardiotonic activity in iv dosed Sus scrofa (pig) assessed as change in left ventricular filling pressure administered as infusion; type: functional, Heart left ventricle
# Sus scrofa [4] = test: Cardiotonic activity in iv dosed Sus scrofa (pig) assessed as change in left ventricular systolic pressure administered as infusion; type: functional, Heart left ventricle
# Sus scrofa [5] = test: Cardiotonic activity in iv dosed Sus scrofa (pig) assessed as change in heart rate administered as infusion; type: functional
# Sus scrofa [6] = test: Cardiotoxicity in Sus scrofa (pig) assessed as increase in maximum rate of rise of left ventricular pressure at 0.05 to 0.5 ug/kg/min administered as 10 min infusion; type: toxicity, organism-based, Heart left ventricle; settings: in vivo, iv
SMILES,Activity (Sus scrofa [1]) [%],Activity (Sus scrofa [2]) [%],Activity (Sus scrofa [3]) [%],Activity (Sus scrofa [4]) [%],Activity (Sus scrofa [5]) [%],Activity (Sus scrofa [6]) [%]
COc1ccc(-c2nc3ccc(C4=NNC(=O)CC4C)cc3[nH]2)cc1 (stereo unspecified) [PIMOBENDAN],10,85,-20,-5,10,–
COC(=O)C1=C(C)NC(C)=C(C(=O)OCC(C)C)C1c1ccccc1[N+](=O)[O-] (stereo unspecified) [NISOLDIPINE],–,–,–,–,–,45
